Test results from US7531540B2, “Phthalazinone-piperidino-derivatives as PDE4 inhibitors” (Nycomed GmbH, priority 2001, dated 2009).

Columns and labels:
PDE4 = assay: Inhibition of PDE4 activity ([3H]cAMP hydrolysis, cytosol from human neutrophils); assay type: biochemical; details: 0.5 μM cAMP, Motapizone (1 μM) included to suppress PDE3 activity, 15 min at 37° C.
Protocol: Method for Measuring Inhibition of PDE4 Activity
PDE4 activity was determined as described by Thompson et al. (Adv Cycl Nucl Res 10: 69-92, 1979) with some modifications (Bauer and Schwabe, Naunyn-Schmiedeberg's Arch Pharmacol 311: 193-198, 1980). At a final assay volume of 200 μl (96 well microtiter plates) the assay mixture contained 20 mM Tris (pH 7.4), 5 mM MgCl2, 0.5 μM cAMP, [^3H]cAMP (about 30,000 cpm/assay), the test compound and an aliquot of cytosol from human neutrophils which mainly contains PDE4 activity as described by Schudt et al. (Naunyn-Schmiedeberg's Arch Pharmacol 344: 682-690, 1991); the PDE3-specific inhibitor Motapizone (1 μM) was included to suppress PDE3 activity originating from contaminating platelets. Serial dilutions of the compounds were prepared in DMSO and further diluted 1:100 (v/v) in the assays to obtain the desired final concentrations of the inhibitors at a DMSO concentration of 1% (v/v) which by itself only slightly affected PDE4 activity.
After preincubation for 5 min at 37° C., the reaction was started by the addition of substrate (cAMP) and the assays were incubated for further 15 min at 37° C. 50 μl of 0.2 N HCl was added to stop the reaction and the assays were left on ice for about 10 min. Following incubation with 25 μg 5′-nucleotidase (Crotalus atrox snake venom) for 10 min at 37° C., the assays were loaded on QAE Sephadex A-25 (1 ml bed volume). The columns were eluted with 2 ml of 30 mM ammonium formiate (pH 6.0) and the eluate was counted for radioactivity. Results were corrected for blank values (measured in the presence of denatured protein) which were below 5% of total radioactivity. […] The IC50 -values for the compounds according to the invention for the inhibition of the PDE4 activity were determined from the concentration-inhibition curves by nonlinear-regression.
The inhibitory values determined for the compounds according to the invention follow from the following table A, in which the numbers of the compounds correspond to the numbers of the examples.

| Structure (SMILES) | Inhibition of PDE4 acitivity [measured as -logIC50 (mol/l)] (PDE4) | melting point |
| --- | --- | --- |
| COc1ccc(C2=NN(C3CCN(Cc4ccccn4)CC3)C(=O)[C@@H]3CC=CC[C@H]23)cc1OC.Cl.Cl [compound 24, (4aS,8aR)-4-(3,4-Dimethoxy-phenyl)-2-(1-pyridin-2-ylmethyl-piperidin-4-yl)-4a,5,8,8a-tetrahydro-2H-phthalazin-1-one dihydrochloride] | 10.63 | 214 to 216 °C |
| COc1ccc(C2=NN(C3CCN(Cc4ccncc4)CC3)C(=O)[C@@H]3CC=CC[C@H]23)cc1OC [compound 12, (4aS,8aR)-4-(3,4-Dimethoxyphenyl)-2-(1-pyridin-4-ylmethyl-piperidin-4-yl)-4a,5,8,8a-tetrahydro-2H-phthalazin-1-one] | 10.79 | 196 to 197 °C |
| COc1ccc(C2=NN(C3CCN(CC(=O)c4cc(Cl)c(N)c(Cl)c4)CC3)C(=O)[C@@H]3CC=CC[C@H]23)cc1OC.Cl [compound 14, (4aS,8aR)-2-{1-[2-(4-Amino-3,5-dichloro-phenyl)-2-oxo-ethyl]-piperidin-4-yl}-4-(3,4-dimethoxy-phenyl)-4a,5,8,8a-tetrahydro-2H-phthalazin-1-one hydrochloride] | 10.33 | 206 °C (dec.) |
| COc1ccc(C2=NN(C3CCN(Cc4ccc5ccc(=O)oc5c4)CC3)C(=O)[C@@H]3CC=CC[C@H]23)cc1OC.Cl [compound 18, (4aS,8aR)-4-(3,4-Dimethoxyphenyl)-2-[1-(2-oxo-2H-chromen-7-ylmethyl)-piperidin-4-yl]-4a,5,8,8a-tetrahydro-2H-phthalazin-1-one hydrochloride] | 10.32 | 264 to 267 °C |
| COc1ccc(C2=NN(C3CCN(C(=O)N4CCOCC4)CC3)C(=O)[C@@H]3CC=CC[C@H]23)cc1OC [compound 13, (4aS,8aR)-4-(3,4-Dimethoxyphenyl)-2-[1-(morpholine-4-carbonyl)-piperidin-4-yl]-4a,5,8,8a-tetrahydro-2H-phthalazin-1-one] | 10.03 | 184 to 185 °C |
